# Measurements: the supplement of paper PMC6965134
# ± gives the standard deviation of the averaged measurements.
# Assay: TIMS collisional cross section (CCS, N2) of the lipid ion; higher = larger ion cross section
# Conditions: ionization mode: negative, one isomer drawn
# Protocol: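 Lipid extracts of human plasma (NIST SRM 1950), mouse liver or HeLa cells were separated by nanoflow C18 LC (30 min gradient) and analysed by TIMS-PASEF on a timsTOF Pro. Ion mobility was calibrated with the Agilent tuning mix (negative mode ions) and converted to collisional cross sections (Mason–Schamp, N2).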
# 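Further: lipids from MTBE extraction, five replicate injections per sample, 100 ms TIMS ramp spanning 0.6–1.95 Vs/cm², lipid identity assigned from PASEF MS/MS spectra.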
smiles,measurement,setting,value
CC/C=C\C/C=C\C/C=C\C/C=C\C/C=C\CCCC(=O)O[C@H](COC(=O)CCCCCCC/C=C\C/C=C\CCCCC)COP(=O)([O-])OCC[N+](C)(C)C [PC 18:2_20:5@],TIMS collisional cross section,"sample type: Mouse Liver, ion (formula + adduct): [C46H78NO8P-CH3] 1-",276.6 Å²
CC/C=C\C/C=C\C/C=C\C/C=C\C/C=C\C/C=C\CCC(=O)OC[C@H](COP(=O)(O)OCCN)OC(=O)CCCCCCCCCCCCC [PE 22:6_14:0],TIMS collisional cross section,"sample type: Mouse Liver, ion (formula + adduct): [C41H70NO8P-H] 1-",268.2 Å²
C=CC(=O)O[C@H](COC(=O)CCCCCCCCCCCCCCCCC)COP(=O)([O-])OCC[N+](C)(C)C [PC 18:0_3:1@],TIMS collisional cross section,"sample type: Mouse Liver, ion (formula + adduct): [C29H56NO8P+AcO] 1-",260.8 Å²
same,TIMS collisional cross section,"sample type: Mouse Liver, ion (formula + adduct): [C29H56NO8P+HCOO] 1-",243.4 Å²
CC/C=C\C/C=C\C/C=C\C/C=C\C/C=C\CCCC(=O)OC[C@@H](O)COP(=O)([O-])OCC[N+](C)(C)C [LPC 20:5_0:0],TIMS collisional cross section,"sample type: Human plasma, ion (formula + adduct): [C28H48NO7P+HCOO] 1-",242.5 Å²
same,TIMS collisional cross section,"sample type: Human plasma, ion (formula + adduct): [C28H48NO7P-CH3] 1-",224.7 Å²
same,TIMS collisional cross section,"sample type: Mouse Liver, ion (formula + adduct): [C28H48NO7P+HCOO] 1-",241.9 Å²
CCCCCCCCCCCCCCCCCCCCCC(=O)O[C@H](COC(=O)CCCCCCCCCCCCCCCC)COP(=O)(O)O [PA 17:0_22:0@],TIMS collisional cross section,"sample type: Human plasma, ion (formula + adduct): [C42H83O8P-CH3] 1-",286.6 Å²
CCCCCCCCCCCCCCCC(=O)OC[C@H](COP(=O)([O-])OCC[N+](C)(C)C)OC(=O)CCCC(=O)O [Oxidized PC 16:0_5:0],TIMS collisional cross section,"sample type: Mouse Liver, ion (formula + adduct): [C29H56NO10P-CH3] 1-",240.1 Å²
CCCCCCCC/C=C\CCCCCCCC(=O)O[C@H](CO/C=C\CCCCCCCCCCCC)COP(=O)([O-])OCC[N+](C)(C)C [PC P- 14:0@_18:1],TIMS collisional cross section,"sample type: Human plasma, ion (formula + adduct): [C40H78NO7P-CH3] 1-",267.3 Å²
CCCCC/C=C\C[C@H](O)/C=C/C=C\C/C=C\CCCC(=O)O[C@H](COC(=O)CCCCCCCCCCCCCCCCC)COP(=O)(O)OCCN [Oxidized PE 18:0_20:4],TIMS collisional cross section,"sample type: Human plasma, ion (formula + adduct): [C43H78NO9P-H] 1-",282.5 Å²
same,TIMS collisional cross section,"sample type: Mouse Liver, ion (formula + adduct): [C43H78NO9P-H] 1-",279 Å²
CCCCC/C=C\C/C=C\C/C=C\C/C=C\CCCC(=O)OC[C@H](COP(=O)(O)OC[C@@H](O)CO)OC(=O)CCCCCCC/C=C\C/C=C\CCCCC [PG 20:4_18:2],TIMS collisional cross section,"sample type: Mouse Liver, ion (formula + adduct): [C44H75O10P-H] 1-",284.1 Å²
CCCCC/C=C\C/C=C\C/C=C\CCCCC(=O)OC[C@@H](O)COP(=O)(O)OCCN [LPE 18:3_0:0],TIMS collisional cross section,"sample type: Human plasma, ion (formula + adduct): [C23H42NO7P-H] 1-",211.6 Å²
CC/C=C\C/C=C\C/C=C\C/C=C\C/C=C\C/C=C\CCC(=O)OC[C@@H](O)COP(=O)([O-])OCC[N+](C)(C)C [LPC 22:6_0:0],TIMS collisional cross section,"sample type: Human plasma, ion (formula + adduct): [C30H50NO7P+HCOO] 1-",246.7 ± 0.42 Å²
same,TIMS collisional cross section,"sample type: Human plasma, ion (formula + adduct): [C30H50NO7P-CH3] 1-",230.4 Å²
same,TIMS collisional cross section,"sample type: Mouse Liver, ion (formula + adduct): [C30H50NO7P+HCOO] 1-",247 Å²
CC/C=C\C/C=C\C/C=C\C/C=C\C/C=C\C/C=C\CCC(=O)O[C@H](COC(=O)CCCCCCC/C=C\CCCCCCCC)COP(=O)(O)OC1C(O)C(O)C(O)[C@@H](O)C1O (some centres undefined) [PI 18:1_22:6@],TIMS collisional cross section,"sample type: Mouse Liver, ion (formula + adduct): [C49H81O13P-H] 1-",299.8 Å²
CCCCCCCCCCCCCCCC(=O)O[C@H](COC(=O)CCCCCCCCCCCCC)COP(=O)([O-])OCC[N+](C)(C)C [PC 14:0_16:0],TIMS collisional cross section,"sample type: Human plasma, ion (formula + adduct): [C38H76NO8P+HCOO] 1-",282.7 Å²
CC/C=C\C/C=C\C/C=C\C/C=C\C/C=C\C/C=C\CCC(=O)OC[C@@H](O)COP(=O)(O)OCCN [LPE 22:6_0:0],TIMS collisional cross section,"sample type: Human plasma, ion (formula + adduct): [C27H44NO7P-H] 1-",222.4 Å²
CC/C=C\C/C=C\C/C=C\C/C=C\C/C=C\C/C=C\CCC(=O)O[C@H](COC(=O)CCCCCCCCCCCCCCCCCCC)COP(=O)([O-])OCC[N+](C)(C)C [PC 20:0@_22:6],TIMS collisional cross section,"sample type: Mouse Liver, ion (formula + adduct): [C50H88NO8P+HCOO] 1-",308.5 Å²
CCCCCCCCCCCCCCCCCCCC(=O)OC[C@@H](O)COP(=O)(O)OCCN [LPE 20:0_0:0],TIMS collisional cross section,"sample type: Human plasma, ion (formula + adduct): [C25H52NO7P-H] 1-",224.9 Å²
same,TIMS collisional cross section,"sample type: Mouse Liver, ion (formula + adduct): [C25H52NO7P-CH3] 1-",220.9 Å²
CCCCCCCC/C=C\CCCCCCCC(=O)OC(COC(=O)CCCCCCCCCCCCCCCCC)COP(=O)(O)OCCN (centres undefined) [PE 18:0_18:1],TIMS collisional cross section,"sample type: Human plasma, ion (formula + adduct): [C41H80NO8P-H] 1-",274.6 Å²
CCCCC/C=C\C/C=C\C/C=C\C/C=C\CCCCCC(=O)O[C@H](CO/C=C\CCCCCCCCCCCCCC)COP(=O)([O-])OCC[N+](C)(C)C [PC P- 16:0@_22:4],TIMS collisional cross section,"sample type: Human plasma, ion (formula + adduct): [C46H84NO7P-CH3] 1-",282.5 Å²
CCCCCCCC/C=C\CCCCCCCC(=O)OC[C@@H](O)COP(=O)(O)OCCN [LPE 18:1_0:0],TIMS collisional cross section,"sample type: Human plasma, ion (formula + adduct): [C23H46NO7P-H] 1-",215.5 ± 1 Å²
same,TIMS collisional cross section,"sample type: Mouse Liver, ion (formula + adduct): [C23H46NO7P-H] 1-",215.2 ± 1 Å²
CC/C=C\C/C=C\C/C=C\C/C=C\C/C=C\C/C=C\CCC(=O)O[C@H](COC(=O)CCC/C=C\C/C=C\C/C=C\C/C=C\C/C=C\CC)COP(=O)([O-])OCC[N+](C)(C)C [PC 20:5_22:6],TIMS collisional cross section,"sample type: Mouse Liver, ion (formula + adduct): [C50H78NO8P+HCOO] 1-",300.4 Å²
CC/C=C\C/C=C\C/C=C\C/C=C\C/C=C\C/C=C\CCC(=O)OC(COC(=O)CCCCCCCCCCCCCCC)COP(=O)(O)OCCN (centres undefined) [PE 16:0@_22:6],TIMS collisional cross section,"sample type: Human plasma, ion (formula + adduct): [C43H74NO8P-H] 1-",275 Å²
CCCCC/C=C\C/C=C\CCCCCCCC(=O)O[C@H](COC(=O)CCCCCCC/C=C\CCCCCC)COP(=O)([O-])OCC[N+](C)(C)C [PC 16:1@_18:2],TIMS collisional cross section,"sample type: Mouse Liver, ion (formula + adduct): [C42H78NO8P-H] 1-",273.3 Å²
CC/C=C\C/C=C\C/C=C\C/C=C\C/C=C\C/C=C\CCC(=O)O[C@H](COC(=O)CCCCCCCCCCCCCC)COP(=O)([O-])OCC[N+](C)(C)C [PC 15:0@_22:6],TIMS collisional cross section,"sample type: Mouse Liver, ion (formula + adduct): [C45H78NO8P-H] 1-",280.7 Å²
CCCCC/C=C\C/C=C\C/C=C\C/C=C\C/C=C\CCC(=O)O[C@H](COC(=O)CCCCCCC/C=C\CCCCCC)COP(=O)([O-])OCC[N+](C)(C)C [PC 16:1@_22:5],TIMS collisional cross section,"sample type: Mouse Liver, ion (formula + adduct): [C46H80NO8P-CH3] 1-",280.1 Å²
CCCCC/C=C\C/C=C\C/C=C\C/C=C\CCCC(=O)O[C@H](COCCCCCCCCCCCCCCCC)COP(=O)([O-])OCC[N+](C)(C)C [PC O- 16:0@_20:4],TIMS collisional cross section,"sample type: Human plasma, ion (formula + adduct): [C44H82NO7P+AcO] 1-",299.9 Å²
same,TIMS collisional cross section,"sample type: Human plasma, ion (formula + adduct): [C44H82NO7P+HCOO] 1-",293.3 Å²
same,TIMS collisional cross section,"sample type: Mouse Liver, ion (formula + adduct): [C44H82NO7P+HCOO] 1-",292.7 Å²
CCCCC/C=C\C/C=C\C/C=C\CCCCCCC(=O)OC[C@@H](O)COP(=O)(O)OC1[C@H](O)[C@H](O)C(O)[C@H](O)[C@H]1O (some centres undefined) [LPI 20:3_0:0],TIMS collisional cross section,"sample type: Human plasma, ion (formula + adduct): [C29H51O12P-H] 1-",240.4 Å²
CC/C=C\C/C=C\C/C=C\C/C=C\C/C=C\C/C=C\CCC(=O)O[C@H](COC(=O)CCCCCCCCCCCCCCCCC)COP(=O)([O-])OCC[N+](C)(C)C [PC 18:0@_22:6],TIMS collisional cross section,"sample type: Human plasma, ion (formula + adduct): [C48H84NO8P+HCOO] 1-",303.4 Å²
CCCCC/C=C\C/C=C\C/C=C\C/C=C\CCCC(=O)OC[C@H](COP(=O)(O)OCCN)OC(=O)CCCCCCC/C=C\C/C=C\CCCCC [PE 20:4_18:2],TIMS collisional cross section,"sample type: Mouse Liver, ion (formula + adduct): [C43H74NO8P-H] 1-",272.7 Å²
CCCCC/C=C\C/C=C\CCCCCCCC(=O)O[C@@H](CO)COC(=O)CCCCCCCCCCCCCC [DG 15:0@_18:2_0:0],TIMS collisional cross section,"sample type: Human plasma, ion (formula + adduct): [C36H66O5-H] 1-",254.4 Å²
